Marks after values point to notes of the source that are not given here. Where no end group is shown, it is not given here. [ ]: non-standard residue; d: D form. Cit = NC(=O)NCCC[C@H](N)C(=O)O
Key:
human sera = test: ELISA: binding of biotinylated collagen peptides to human sera; details: for Controls mean ± SD absorbance: 81 sera from healthy controls, read at 450 nm; for Controls over mean + 2 SD number: number of the 81 control sera; for RA patients over mean + 2 SD number: number of the 120 RA sera, significance marks versus controls; for number of RA sera that bound more citrullinated peptide than normal (arginine) peptide: 120 RA sera; for mean (variance/SD) of the differences, absorbance value of citrullinated peptide minus that of arginine peptide: control samples; for specific binding to the citrullinated form (autoantibodies against citrullinated proteins): RA sera
Text: The serum samples from 120 patients with RA were obtained from the Division of Rheumatology of Oulu University Hospital. The controls consisted of 81 sera from healthy people matched for age and sex. Six pairs of biotinylated peptides were synthesised by NeoMPS (Strasbourg, France). […] FIGS. 1A-C show the localization of the peptides CC1-CC4 in type II collagen and their sequences; the numbers in brackets refer to arginine residues: CC1 (1059), CC2 (1048), CC3 (799) and CC4 (28). Collagenase cleavage site is shown by arrow in FIG. 1A -GPPGPQG|LAGQRGE- (SEQ ID NO:9). […] The sequence GPPGPGIDMSAFAGLGPREKGPDPLQYMXA is shown in the sequence listing as SEQ ID NO: 10. The 12 carboxy terminal amino acids represent the peptide CC1. […] One member of each pair contained the arginine predicted by the respective gene, whereas in the other member of the pair this was replaced by citrulline.
The biotinylated peptides were coupled to streptavidin-coated 96-well assay plates (BioBind Assembly, Thermo Labsystems Oy, Vantaa, Finland) at a concentration of 10 μg/well. The coupling was performed at room temperature, pH 7.5, for two hours. The streptavidin-coated wells had been blocked by the manufacturer to prevent unspecific binding.
The sera to be tested were diluted in assay buffer (10 mM Tris-HCl, 350mM NaCl, 1% BSA, 1% [vol/vol] Triton X-100, 0.5% [wt/vol] Na-deoxycholate, 0.1% SDS; pH 7.6) supplemented with 1% rabbit serum and incubated for an hour at room temperature. After washing (3 times with PBS/0.05% [vol/vol] Tween-20), 100 μl of anti-human IgG conjugated to peroxidase (Product #31412, Pierce, Rockford, Ill., USA) diluted 1:7500 in EIA buffer (20 mM Tris-HCl, 150 mM NaCl, 0.1% BSA, 0.05% Tween-20, pH 7.5) was added. After incubation for an hour at room temperature, the plates were washed (3 times with PBS/Tween-20). The bound antibodies were detected with 3,3′-5,5′-tetramethyl-benzidine (Sigma-Aldrich, St.Louis, Minn., USA) as a substrate (0.01 mg/100 μl per well in 100 mM sodium acetate trihydrate, 1.5 mM citric acid monohydrate, 0.0015% H2O2). After 30 minutes, the reaction was stopped by adding 100 μl 2M sulphuric acid/well. The plates were read at a wavelength of 450 nm in a Victor^2 instrument (Wallac, Turku, Finland) and calculated by Multicalc (Wallac). All the sera were tested in duplicate. The coefficients of variation were generally less than 10%.

[1] = system: IgG antibodies against the synthetic C-telopeptides of the α1 chains of human type I and II collagens; test: Two-site chemiluminescence immunoassay with biotinylated C-telopeptides; format: binding
Experimental: The measurements were done with two-site chemiluminescence immunoassays, which detect IgG antibodies against the synthetic C-telopeptides of the α1 chains of human type I and II collagens (EKAHDGGRYYRA (SEQ ID NO:4), and EKGPDPLQYMRA (SEQ ID NO:5), or EKAHDGGRYYXA (SEQ ID NO:1), and EKGPDPLQYMXA (SEQ ID NO:3), respectively, where X stands for citrulline, from NeoMPS, Strasbourg, France). The serum samples were first diluted 1:10 in a buffer containing 10 mM Tris-HCl, 350 mM NaCl, 1% BSA, 1% [vol/vol] Triton X-100, 0.5% [wt/vol] Na-deoxycholate, 0.1% SDS; pH 7.6 and incubated with suitable concentrations of one of the above peptides (in biotinylated form) and streptavidin-coated magnetic particles for 10 minutes at 37° C. The unbound biotinylated antigen and antibodies were separated from the complex bound to the magnetic particles by aspiration of the reaction mixture and subsequent washing. Thereafter, acridinium-labeled anti-human IgG antibodies were added to the reaction mixture followed by another 10-minute incubation to produce the sandwich complex. The unbound label was separated by aspiration of the reaction mixture and subsequent washing. To the washed magnetic particles with the complex we injected the triggers 1 and 2, initiating the chemiluminescence reaction. […]

[2] = system: autoantibodies in sera binding citrulline containing type II collagen carboxytelopeptide; test: Inhibition assay: citrullinated peptide ELISA with and without soluble peptide; design: species or system human; details: soluble peptide 200 μg/ml
Experimental: Preferentially it is also possible to use only citrullinated peptide assay version, where this assay is performed with standard condition and with adding the same or similar soluble peptide in assay solution (200 μg/ml).
Sera from RA patients (n=120) and controls (n=80) were diluted 1:100 in assay buffer and/or inhibiting buffer (with soluble citrulline containing peptide (200 μg/ml)). The inhibition time was 30 minutes. After the inhibition reaction, the sera were moved to the wells of streptavidin-coated 96-well assay plates to which the biotinylated citrulline containing peptides had been coupled. After washing (3 times with PBS/0.05% [vol/vol] Tween-20), 100 μl of anti-human IgG conjugated to peroxidase (Product #31412, Pierce, Rockford, Ill., USA) diluted 1:7500 in EIA buffer (20 mM Tris-HCl, 150 mM NaCl, 0.1% BSA, 0.05% Tween-20, pH 7.5) was added. After incubation for an hour at room temperature, the plates were washed (3 times with PBS/Tween-20). The bound antibodies were detected with 3,3′-5,5′-tetramethyl-benzidine (Sigma-Aldrich, St.Louis, Minn., USA) as a substrate (0.01 mg/100 μl per well in 100 mM sodium acetate trihydrate, 1.5 mM citric acid monohydrate, 0.0015% H2O2). After 30 minutes, the reaction was stopped by adding 100 μl 2M sulphuric acid/well. The plates were read at a wavelength of 450 nm in a Victor instrument (Wallac, Turku, Finland). […]

| Sequence | Controls mean ± SD absorbance (human sera) | Controls over mean + 2 SD number (human sera) | RA patients over mean + 2 SD number (human sera) | mean (variance/SD) of the differences, absorbance value of citrullinated peptide minus that of arginine peptide (human sera) | other results |
| --- | --- | --- | --- | --- | --- |
| GPMGPXGPPGPA [CC4 Arginine peptide] (GPMGPRGPPGPA; also: biotinylated, site not given here) [type II collagen peptide, arginine residue 28] | 0.179 ± 0.070 | 3/81 | 60/120*** | – | – |
| LAGQXGIVGLP (LAGQ[Cit]GIVGLP; also: biotinylated (site not given here)) [CC3 Citrulline peptide] | 0.181 ± 0.067 | 2/81 | 32/120*** | – | – |
| SAFAGLGPXEKGPD [CC2 Arginine peptide] | 0.162 ± 0.053 | 3/81 | 50/120*** | – | – |
| EKAHDGGRYYXA (EKAHDGGRYY[Cit]A; also: biotinylated, site not given here) | 0.314 ± 0.117 | 2/81 | 24/120*** | around +0.026 (0.074) | number of RA sera that bound more citrullinated peptide than normal (arginine) peptide (human sera): 20; number of RA patients whose sera showed increased binding of the citrullinated peptide ([1]; out of 120 RA patients, p=0.003 compared to controls): 44 |
| LAGQXGIVGLP (LAGQ[Cit]GIVGLP; also: biotinylated (site not given here)) [CC3] | – | – | – | −0.001 (0.026) | specific binding to the citrullinated form (autoantibodies against citrullinated proteins) (human sera): no specific binding |
| EKAHDGGRYYRA (also: biotinylated, site not given here; listed as Homo sapiens) [C-telopeptide of α1(I) Arginine peptide, synthetic C-telopeptide of the α1 chain of human type I collagen] | 0.288 ± 0.142 | 4/81 | 6/120^ns | – | – |
| YDFGYDGDFYXA (YDFGYDGDFY[Cit]A; also: biotinylated (site not given here)) [listing 1 of 2 here] | 0.763 ± 0.356 | 3/81 | 12/120** | – | – |
| GPMGPXGPPGPA (GPMGP[Cit]GPPGPA; also: biotinylated (site not given here)) [CC4 Citrulline peptide] | 0.184 ± 0.071 | 2/81 | 22/120*** | – | – |
| YDFGYDGDFYXA (YDFGYDGDFY[Cit]A; also: biotinylated (site not given here)) [listing 2 of 2 here] | – | – | – | +0.071 (0.252) | – |
| EKGPDPLQYMXA (EKGPDPLQYM[Cit]A; also: biotinylated, site not given here) [CC1] | – | – | – | −0.026 (SD 0.032) | number of RA sera that bound more citrullinated peptide than normal (arginine) peptide (human sera): 12; specific binding to the citrullinated form (autoantibodies against citrullinated proteins) (human sera): specifically bound autoantibodies against citrullinated proteins; number of patients' sera that bound the citrullinated peptide more strongly than the arginine peptide ([1]; 120 RA patients, p=0.074 compared to controls, not significant): 35 |
| SAFAGLGPXEKGPD (SAFAGLGP[Cit]EKGPD; also: biotinylated (site not given here)) [CC2 Citrulline peptide] | 0.135 ± 0.054 | 1/81 | 25/120*** | – | – |
| GPMGPXGPPGPA (GPMGP[Cit]GPPGPA; also: biotinylated (site not given here)) [CC4] | – | – | – | +0.005 (0.020) | specific binding to the citrullinated form (autoantibodies against citrullinated proteins) (human sera): no specific binding |
| SAFAGLGPXEKGPD (SAFAGLGP[Cit]EKGPD; also: biotinylated (site not given here)) [CC2] | – | – | – | −0.027 (0.029) | number of RA sera that bound more citrullinated peptide than normal (arginine) peptide (human sera): two |
| LAGQXGIVGLP [CC3 Arginine peptide] | 0.182 ± 0.073 | – | 63/120*** | – | – |
| EKGPDPLQYMXA (EKGPDPLQYM[Cit]A; also: biotinylated, site not given here) [CC1 Citrulline peptide] | 0.155 ± 0.065 | 2/81 | 35/120*** | – | inhibition-% with the respective soluble antigen in controls (mean±SD) ([2]; control sera diluted 1:100, 30 minutes): 5.4%±3.8; number of RA patients showing increased inhibition ([2]; out of 120, more inhibition than 13.0%): 38 |
| EKGPDPLQYMRA (listed as Homo sapiens) [CC1 Arginine peptide, C-telopeptide of the α1 chain of type II collagen] | 0.181 ± 0.077 | 2/81 | 54/120*** | – | – |

Source: patent US20090325884A1, “Method for Detecting Autoantibodies Formed in Rheumatoid Arthritis” (PROCOLLAGEN OY, priority 2005, published 2009)
